Reference: patent EP0934940A1, “CYTOKINE PRODUCTION INHIBITORS, TRIAZEPINE COMPOUNDS, AND INTERMEDIATES THEREOF” (Japan Tobacco Inc., priority 1996, dated 1997)
Read-outs that look alike come from different tables or passages of the source.

How the values were obtained:
IL-6 [1] = experiment: Inhibitory activity on in vivo IL-6 production by LPS stimulation; details: male ICR mice, LPS stimulation i.v., test compound 10 mg/kg p.o. at the same time, blood two hours later, relative to 0.5% CMC-Na group; for inhibition in vivo at 10 mg/kg: Mus musculus, po, 2 h, read-out: Inhibtion (%) of plasma IL-6 production (10 mg/kg, p.o.)
Description: Inhibitory activity on in vivo IL-6 production by LPS stimulation
LFS (0.3 mg/kg) was intravenously administered to male ICR mice (6-week-old) fasted for 24 hours. At the same time, the test compound suspended in 0.5% CMC-Na ( carboxymethylcellulose sodium) was orally administered at the dose of 10 mg/kg.
Two hours later, blood was taken from eyegrounds. The blood was centrifuged, and the plasma fraction was diluted and quantitatively assayed for IL-6 in blood by ELISA (Endogen EM-IL6). The inhibitory percentage of the group administered with the test compound was expressed relative to the amount of IL-6 in blood of the cup administered with 0.5% CMC-Na.

IL-6 [2] = experiment: Inhibitory activity on IL-6 production from LPS-stimulated human PBMC (ELISA); type: cell-based; details: 24 h
Description: (§1) Inhibitory activity on cytokine production from human PBMC (peripheral blood mononuclear cell)
(§2) PBMC fractions were isolated from human blood using a mono-poly resolving medium. The cells (PBMC) were cultured in 5% FCS (fetal calf serum)/RPMI1640 medium. Thereafter, the test compound was added to the final concentration of 0.001-10 µM, and LPS (lipopolysaccharide) was added to the final concentration of 10 µg/ml. After incubatioin for 24 hours, the supernatant was separated and freeze stocked at -80°C.
(§3) On the day of experiment, the supernatant was thawed and the production amount of cytokine was measured by ELISA. IL-6 was assayed using [(h)IL-6] human, ELISA system (Amersham); TNF-α was assayed using [(h)TNF-α] human, ELISA system (Amersham); GM-CSF was assayed using human GM-CSF immunoassay (R&D systems); and IL-8 was assayed using human IL-8 immunoassay (R&D systems). The determination method followed the method of each kit. The results are expressed in IC50.

TNF-α = experiment: Inhibitory activity on TNF-α production from LPS-stimulated human PBMC (ELISA); type: cell-based; details: Homo sapiens, PBMC, 24 h
Description: as §1, §2, §3

[3] = human PBMC, LPS 10 µg/ml, incubation 24 hours, supernatant ELISA, read-out: IL-6 IC50
[4] = human PBMC, LPS 10 µg/ml, incubation 24 hours, supernatant ELISA, read-out: TNF-α IC50
[5] = read-out: IL-6 IC50 (µM), human PBMC, LPS 10 µg/ml, incubation 24 hours, supernatant ELISA
[6] = read-out: TNF-α IC50 (µM), human PBMC, LPS 10 µg/ml, incubation 24 hours, supernatant ELISA

Row | Structure (SMILES) | IC50 (IL-6 [2]; [5]) [µM] | IC50 (TNF-α; [6]) [µM] | also measured
1 | Cc1cc2c(s1)-n1c(C)nnc1N(Cc1ccncc1)N=C2c1ccccc1 [Synthetic Example 121, 2,9-Dimethyl-4-phenyl-6-(pyridin-4-ylmethyl)-6H-5,6,7,8,9a-pentaazathieno[2,3-e]azulene] | – | – | inhibition in vivo at 10 mg/kg (IL-6 [1]): 91%
2 | Cc1nnc2n1-c1ccccc1C(c1ccc(NC(=O)OC(C)(C)C)cc1)=NN2Cc1ccc([N+](=O)[O-])cc1 [Example 14, tert-Butyl 4-[1 methyl-4-(4-nitrobenzyl)-4H-2,3,4,5,10b-pentaazabenz[e]azulen-6-yl]phenylcarbamate] | – | – | IC50 (IL-6 [2]; [3]): 0.02 µM; IC50 (TNF-α; [4]): < 0.01 µM
3 | Cc1ccc2c(c1)-n1c(C)nnc1N(Cc1ccncc1)N=C2c1ccccc1 [Synthetic Example 97, 1,9-Dimethyl-6-phenyl-4-(pyridin-4-ylmethyl)-4H-2,3,4,5,10b-pentaazabenz[e]azulene] | – | – | inhibition in vivo at 10 mg/kg (IL-6 [1]): 98%
4 | Cc1ccc2c(c1)-n1c(C)nnc1N(Cc1ccc(C#N)cc1)N=C2c1ccc(Cl)cc1 [compound 108] | < 0.01 | < 0.01 | –
5 | Cc1nnc2n1-c1ccccc1C(c1ccc(Cl)cc1)=NC21NC(=O)N(c2ccccc2)C1=O (stereo not drawn) [compound 197] | > 10 | 0.3 | –
6 | Cc1nnc2n1-c1ccc([N+](=O)[O-])cc1C(c1ccccc1)=NN2Cc1ccncc1 [compound 102] | 1.15 | 0.05 | –
7 | Cc1nnc2n1-c1ccccc1C(c1ccc(Cl)cc1)=NN2Cc1ccncc1 [Synthetic Example 86, 6-(4-Chlorophenyl)-1-methyl-4-(pyridin-4-ylmethyl)-4H-2,3,4,5,10b-pentaazabenz[e]azulene] | – | – | inhibition in vivo at 10 mg/kg (IL-6 [1]): 89%
8 | CCc1cc2c(s1)-n1c(C)nnc1N(Cc1ccncc1)N=C2c1ccccc1 [compound 127] | 0.08 | < 0.01 | –
9 | Cc1ccc(C2=NN(Cc3ccncc3)c3nnc(C)n3-c3ccccc32)cc1 [Synthetic Example 103, 1-Methyl-6-(4-methylphenyl)-4-(pyridin-4-ylmethyl)-4H-2,3,4,5,10b-pentaazabenz[e]azulene] | – | – | inhibition in vivo at 10 mg/kg (IL-6 [1]): 75%
10 | Cc1nnc2n1-c1ccccc1C(c1ccc(Br)cc1)=NN2Cc1ccc(Br)cc1 [Synthetic Example 109, 4-(4-Bromobenzyl)-6-(4-bromophenyl)-1-methyl-4H-2,3,4,5,10b-pentaaabenz[e]azulene] | – | – | Inhibtion (%) of plasma IL-6 production (10 mg/kg, p.o.) (IL-6 [1]): 51%
11 | CCc1cc2c(s1)-n1c(C)nnc1N(Cc1ccncc1)N=C2c1ccc(Cl)cc1 [Synthetic Example 118, 4-(4-Chlorophenyl)-2-ethyl-9-methyl-6-(pyridin-4-ylmethyl)-6H-5,6,7,8,9a-pentaazathieno[2,3-e]azulene] | – | – | inhibition in vivo at 10 mg/kg (IL-6 [1]): 75%
12 | COC(=O)c1ccc(C2=NN(Cc3ccc(C#N)cc3)c3nnc(C)n3-c3ccccc32)cc1 [Example 7, Methyl 4-[4-(4-cyanobenzyl)-1-methyl-4H-2,3,4,5,10b-pentaazabenz[e]azulen-6-yl]benzoate] | – | – | IC50 (IL-6 [2]; [3]): 0.23 µM; IC50 (TNF-α; [4]): 0.5 µM
13 | Cc1nnc2n1-c1ccccc1C(c1ccc(NC(=O)OC(C)(C)C)cc1)=NN2Cc1ccc(C#N)cc1 [Example 13, tert-Butyl 4-[4-(4-cyanobenzyl)-1-methyl-4H-2,3,4,5,10b-pentaazabenz[e]azulen-6-yl]phenylcarbamate] | – | – | IC50 (IL-6 [2]; [3]): 0.02 µM; IC50 (TNF-α; [4]): < 0.01 µM
14 | CCc1cc2c(s1)-n1c(C)nnc1N(Cc1ccncc1)N=C2c1ccccc1 [Synthetic Example 127, 2-Ethyl-9-methyl-4-phenyl-6-(pypidin-4-ylmethyl)-6H-5,6,7,8,9a-pentaazathieno[2,3-e]azulene] | – | – | Inhibtion (%) of plasma IL-6 production (10 mg/kg, p.o.) (IL-6 [1]): 83%
15 | Cc1nnc2n1-c1ccccc1C(c1ccc(Cl)cc1)=NC2NC(=O)c1cc2ccccc2[nH]1 (stereo not drawn) [compound 205] | 3.9 | 0.01 | –
16 | Cc1nnc2n1-c1ccccc1C(c1ccccc1)=NN2Cc1ccncc1 [Synthetic Example 95, 1-Methyl-6-phenyl-4-(pyridin-4-ylmethyl)-4H-2,3,4,5,10b-pentaazabenz[e]azulene] | – | – | inhibition in vivo at 10 mg/kg (IL-6 [1]): 78%
17 | CCc1cc2c(s1)-n1c(C)nnc1N(Cc1cc[n+]([O-])cc1)N=C2c1ccc(Cl)cc1 [Example 4, 4-[4-(4-Chlorophenyl)-2-ethyl-9-methyl-6H-1-thia-5,6,7,8,9a-pentaazacyclopent[e]azulen-6-ylmethyl]-pyridine-1-oxide] | – | – | IC50 (IL-6 [2]; [3]): 2 µM
18 | Cc1nnc2n1-c1ccccc1C(c1ccc(Br)cc1)=NN2Cc1ccc(Br)cc1 [compound 109] | < 0.01 | 0.07 | –
19 | Cc1sc2c(c1C)C(c1ccccc1)=NN(Cc1ccncc1)c1nnc(C)n1-2 [compound 125] | 0.02 | < 0.01 | –
20 | CCc1cc2c(s1)-n1c(C)nnc1N(Cc1ccc(C#N)cc1)N=C2c1ccc(Cl)cc1 [compound 119] | < 0.01 | < 0.01 | –
21 | Cc1nnc2n1-c1ccccc1C(c1ccc(Cl)cc1)=NN2Cc1ccncc1 [compound 86] | 0.08 | 0.01 | –
22 | COc1ccc(OC)c(N2C(=O)NC3(N=C(c4ccc(Cl)cc4)c4ccccc4-n4c(C)nnc43)C2=O)c1 (stereo not drawn) [compound 196] | 2.5 | 0.09 | –
23 | Cc1sc2c(c1C)C(c1ccc(Cl)cc1)=NN(Cc1cc[n+]([O-])cc1)c1nnc(C)n1-2 [Example 3, 4-[4-(4-Chlorophenyl)-2,3,9-trimethyl-6H-1-thia-5,6,7,8,9a-pentaazacyclopent[e]azulen-6-ylmethyl]-pyridine-1-oxide] | – | – | IC50 (IL-6 [2]; [3]): 0.2 µM; IC50 (TNF-α; [4]): 0.05 µM
24 | COc1ccc(OC)c(NC(=O)NC2N=C(c3ccc(Cl)cc3)c3ccccc3-n3c(C)nnc32)c1 (stereo not drawn) [compound 204] | > 10 | 0.4 | –
25 | Cc1nnc2n1-c1ccccc1C(c1ccc(Cl)cc1)=NN2Cc1ccc(C#N)cc1 [compound 39] | < 0.01 | < 0.01 | –
26 | Cc1cc2c(s1)-n1c(C)nnc1N(Cc1ccc(-c3nnn(C)n3)cc1)N=C2c1ccccc1 [Example 17, 2,9-dimethyl-4-phenyl-6-[4-(2-methyl-2H-tetrazol-5-yl)benzyl]-6H-5,6,7,8,9a-pentaazathieno[2,3-e]azulene] | – | – | IC50 (TNF-α; [4]): 0.12 µM
27 | CCOC(=O)C1(NC(=O)Nc2cc(OC)ccc2OC)N=C(c2ccc(Cl)cc2)c2ccccc2-n2c(C)nnc21 (stereo not drawn) [compound 199] | 1.6 | 0.01 | –

Continued, in another order:

Row | IC50 (IL-6 [2]; [5]) [µM] | IC50 (TNF-α; [6]) [µM] | Structure (SMILES) | also measured
28 | 0.008 | < 0.01 | COc1ccc(CN2N=C(c3ccc(OC)cc3)c3c(sc(C)c3C)-n3c(C)nnc32)cc1 [compound 18] | –
29 | 0.01 | < 0.01 | Cc1sc2c(c1C)C(c1ccc(Cl)cc1)=NN(Cc1ccncc1)c1nnc(C)n1-2 [compound 114] | –
30 | < 0.01 | < 0.01 | Cc1cc2c(s1)-n1c(C)nnc1N(Cc1ccc(C#N)cc1)N=C2c1ccccc1 [compound 122] | –
31 | 0.01 | 0.02 | Cc1ccc(CN2N=C(c3ccc(Cl)cc3)c3ccccc3-n3c(C)nnc32)cc1 [compound 54] | –
32 | 0.34 | 0.03 | Cc1nnc2n1-c1ccccc1C(c1ccccc1)=NN2Cc1ccncc1 [compound 95] | –
33 | 5.7 | 0.2 | Cc1nnc2n1-c1ccccc1C(c1ccc(Cl)cc1)=NC2NC(=O)NC1CCCCC1 (stereo not drawn) [compound 203] | –
34 | 0.11 | 0.001 | Cc1ccc(C2=NN(Cc3ccncc3)c3nnc(C)n3-c3ccccc32)cc1 [compound 103] | –
35 | 0.04 | < 0.01 | Cc1cc2c(s1)-n1c(C)nnc1N(Cc1ccncc1)N=C2c1ccccc1 [compound 121] | –
36 | 0.06 | 0.014 | COc1ccc(C2=NN(Cc3ccncc3)c3nnc(C)n3-c3sc(C)c(C)c32)cc1 [compound 129] | –
37 | 0.4 | 0.07 | Cc1nnc2n1-c1ccccc1C(c1ccccc1)=NN2Cc1ccc(C#N)cc1 [compound 111] | –
38 | 0.22 | 0.007 | Cc1ccc2c(c1)-n1c(C)nnc1N(Cc1ccncc1)N=C2c1ccccc1 [compound 97] | –
39 | 3.4 | 0.6 | Cc1nnc2n1-c1ccccc1C(c1ccc(Cl)cc1)=NC2CC(=O)Nc1ccccc1 (stereo not drawn) [compound 195] | –
40 | 0.06 | 0.01 | Cc1sc2c(c1C)C(c1ccc(Cl)cc1)=NN(Cc1ccc(C#N)cc1)c1nnc(C)n1-2 [compound 115] | –
41 | 0.8 | 0.06 | Cc1sc2c(c1C)C(c1ccccc1Cl)=NN(Cc1ccncc1)c1nnc(C)n1-2 [compound 20] | –
